Format in all cases: functional, cell-based
The nature of experiment [1]: Cytotoxicity against human COLO320DM cells after 72 hrs by WST-8 assay. The settings on record: COLO 320DM. Background: Tetrazolium assays rely on reduction of a dye to a coloured formazan, in cell work by metabolically active cells.
For a further experiment, the system named is SK-BR-3. As to the kind of experiment: Cytotoxicity against human SK-BR-3 cells after 72 hrs by WST-8 assay. The settings on record: SK-BR-3, 72 h.
The next experiment has as its system MCF7. Briefly: Cytotoxicity against human MCF7 cells after 72 hrs by WST-8 assay. The settings on record: MCF7, 72 h.
The test system of a further experiment is PC-3. Briefly: Cytotoxicity against human PC3 cells after 72 hrs by WST-8 assay. To be noted: PC-3, 72 h.

Molecules are shown by their SMILES. A value given as a limit tells only on which side of the number the result lay.

What is called IC50 is the point on the concentration scale where inhibition reaches its midpoint. Read a low IC50 as higher potency.

Consider `COc1cc(O)c2c(c1CC=C(C)C)OC(c1ccccc1)CC2=O` (configuration not stated), for which the IC50 was 24.2 µM in experiment [1], 34.4 µM with SK-BR-3, 30.3 µM in the experiment with MCF7 and 35.3 µM with PC-3.

For `COc1cc2c(c3c1C(C)(C)C(C)O3)C(=O)CC(c1ccccc1)O2` (configuration not stated), the IC50 in experiment [1] is 18.6 µM; in the experiment with SK-BR-3, 14 µM; in the experiment on MCF7 it was 29.5 µM; in the experiment with PC-3, 10.4 µM.

As for `COc1cc(O)c2c(c1)O[C@H](c1ccccc1)CC2=O` [PINOSTROBIN], the IC50 was above 100 µM in experiment [1], 94.3 µM in the experiment with SK-BR-3, 84.9 µM in the experiment on MCF7 and 86.7 µM in the experiment on PC-3.
